Experimental data: article PMC10410612 (2023)

How the values were obtained:
[1] = system: poly(rA)·poly(rU) (RNA, polymer) A/U; assay: UV melting; settings: NaCac 2.5 mM; pH 7.0; 1:1 ratio complex/polynucleotide; free Tm 47.9 °C; per base
[2] = system: poly(rU)*poly(rA)·poly(rU) (RNA, polymer) U/A/U; assay: UV melting; settings: NaCac 2.5 mM; pH 7.0; 1:1 ratio complex/polynucleotide; free Tm 46.9 °C; per base
[3] = system: poly(rA)·poly(rU) (RNA, polymer) A/U; assay: ethidium bromide displacement fluorescence; settings: NaCac 2.5 mM; pH 7.0; tracer ethidium bromide; some interaction
[4] = system: poly(rA)·poly(rU) (RNA, polymer) A/U; assay: UV-vis absorbance titration, HypSpec2014 fit; settings: NaCac 2.5 mM; pH 7.0, 25.0 °C; per base pair, site size n = 1
[5] = system: poly(rU)*poly(rA)·poly(rU) (RNA, polymer) U/A/U; assay: UV-vis absorbance titration, HypSpec2014 fit; settings: NaCac 2.5 mM; pH 7.0, 25.0 °C; per base triplet, site size n = 1

ΔTm [1]: -6.5 ± 0.9 °C
ΔTm [2]: 1.6 ± 0.5 °C
binding [3]: yes
K [4]: (6.0 ± 0.9) × 10^5
K [5]: (3.1 ± 0.9) × 10^5
Compound: C=[C-]c1cccc(OC(=O)c2ccccc2OC(C)=O)c1.[C-]#[O+].[C-]#[O+].[C-]#[O+].[Ru+2].[Ru+2].c1cc[cH-]c1.c1cc[cH-]c1
